In patent US9717725B2, “Use of opioid antagonists” (THE UNIVERSITY OF CHICAGO, priority 2005, dated 2017):
Entries after “also recorded” stand apart in the source; their conditions may differ.

Experiments:
[1] = tested on: RhoA; assay: RhoA activation assay (RBD bead pull-down, immunoblot); format: cell-based, human; details: EC
[2] = tested on: human pulmonary microvascular endothelial cells (HPMVEC); assay: Human pulmonary microvascular EC proliferation assay (CellTiter96 MTS); format: cell-based; details: for agonist-induced EC proliferation: serum-free media with agonist, MTS assay
[3] = tested on: proliferative retinopathy; details: sickle cell disease (Gupta et al., personal communication); cited from earlier work
[4] = tested on: VEGF receptor 1 (Flt-1); assay: Tyrosine phosphorylation of VEGF receptor 1 (immunoprecipitation/immunoblot); format: cell-based, human; details: HPMVEC
[5] = tested on: PDGF receptor; assay: Tyrosine phosphorylation of the PDGF receptor in EC (Example 9); format: cell-based, human; details: for induction of tyrosine phosphorylation of the PDGF receptor: EC
[6] = tested on: Flk-1 expression; details: morphine-treated mice versus controls (K. Gupta, personal communication); cited from earlier work
[7] = tested on: human pulmonary microvascular endothelial cells (HPMVEC); assay: Human pulmonary microvascular EC migration assay (Transwell); format: cell-based; details: for agonist-induced EC migration (% migration): agonist in lower chamber, Transwell
[8] = tested on: VEGF receptor; assay: Tyrosine phosphorylation of the VEGF receptor in EC (Example 9); format: cell-based, human; details: for induction of tyrosine phosphorylation of the VEGF receptor: EC
[9] = tested on: VEGF receptor 2 (Flk-1); assay: Tyrosine phosphorylation of VEGF receptor 2 (immunoprecipitation/immunoblot); format: cell-based, human; details: HPMVEC
[10] = tested on: S1P3 receptor; assay: Tyrosine phosphorylation of the S1P3 receptor in EC (Example 9); format: cell-based, human; details: for induction of tyrosine phosphorylation of the S1P3 receptor: EC
[11] = molecular target: mu-opioid receptor (Homo sapiens, UniProt P35372); assay: Serine/threonine phosphorylation of the mu-opioid receptor in EC (Example 9); format: cell-based; details: for induction of serine/threonine phosphorylation of the mu-opioid receptor: EC
[12] = tested on: microvascular endothelial cells; assay: VEGF induced proliferation of endothelial cells, combination (Example 10); format: cell-based; details: combination of methylnaltrexone and 5-FU
[13] = tested on: SW 480 human colorectal cancer cell line; assay: Effects on SW 480 cancer cell line
[14] = tested on: tumors; assay: Treatment of tumor-bearing mice (Examples 4-7); format: in vivo; details: eight weeks; for tumor growth and angiogenesis: antagonist orally 5 mg/kg/day with morphine 0.5 mg/kg/day; for angiogenesis and tumor growth, combination of opioid, opioid antagonist and anticancer agent: with morphine and bevacizumab (Avastin) 5 mg/kg every 14 days
[15] = J. Foss, et al.; cited from earlier work
[16] = tested on: tumor; assay: Study in human cancer patients (Examples 6-7); format: in vivo; details: antagonist orally 5 mg/kg/day for eight weeks with opioid and bevacizumab (Avastin)
[17] = tested on: microvascular endothelial cells; assay: VEGF induced migration of endothelial cells, combination (Example 10); format: cell-based; details: combination of methylnaltrexone and Bevacizumab
[18] = tested on: Lewis lung carcinoma (LLC) cells; assay: LLC cell proliferation in vitro; format: cell-based; details: treatment in vitro with methylnaltrexone
[19] = doses maintaining plasma levels about 25 and 150 ng/mL (Yuan et al.); cited from earlier work
[20] = tested on: Lewis lung carcinoma (LLC) cells; assay: LLC cell invasion assay (Chemicon Cell Invasion Assay Kit); format: cell-based; details: methylnaltrexone (10 nM or 100 nM)
[21] = tested on: Lewis lung carcinoma (LLC) tumor; assay: LLC flank tumor model, continuous MNTX infusion; format: in vivo, C57BL/6J mice; details: for appearance of macrometastases in the lungs / appearance of micrometastases in the lungs: continuous infusion 10 mg/kg/day
[22] = pretreatment with MNTX 0.1 μM, 1 hour
[23] = summary statement, concentration dependence

Chain of mu-opioid receptor (P35372 whole entry): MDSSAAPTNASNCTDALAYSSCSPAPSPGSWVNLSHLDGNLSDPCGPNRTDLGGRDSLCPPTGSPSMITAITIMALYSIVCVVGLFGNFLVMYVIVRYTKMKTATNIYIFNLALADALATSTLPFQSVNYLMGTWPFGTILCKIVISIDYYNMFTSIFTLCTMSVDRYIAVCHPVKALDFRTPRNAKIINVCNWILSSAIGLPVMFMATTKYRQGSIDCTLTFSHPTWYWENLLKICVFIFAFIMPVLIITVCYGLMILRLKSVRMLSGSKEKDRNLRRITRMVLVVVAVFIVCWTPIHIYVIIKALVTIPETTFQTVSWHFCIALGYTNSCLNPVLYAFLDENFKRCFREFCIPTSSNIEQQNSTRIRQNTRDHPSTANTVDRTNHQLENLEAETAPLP

Molecule: CN1CC[C@]23c4c5ccc(O)c4O[C@H]2[C@@H](O)C=C[C@H]3[C@H]1C5 [morphine]
- RhoA activation by agonist [1]: stimulate RhoA activation
- RhoA activation by agonist ([1]; listed as MS): stimulate RhoA activation
- agonist-induced EC proliferation [2]: induced proliferation
- agonist-induced EC proliferation ([2]; listed as MS): stimulate HPMVEC proliferation
- induction of proliferative retinopathy [3]: induced proliferative retinopathy
- induction of tyrosine phosphorylation of VEGF receptor 1 (Flt-1) [4]: induce tyrosine phosphorylation
- induction of tyrosine phosphorylation of the PDGF receptor [5]: induced tyrosine phosphorylation
- increase in F11 c-1 expression [6]: 10 fold
- agonist-induced EC migration (% migration) [7]: induced
- agonist-induced EC migration (% migration) ([7]; listed as MS): induce HPMVEC migration
- induction of tyrosine phosphorylation of the VEGF receptor [8]: induced tyrosine phosphorylation
- induction of tyrosine phosphorylation of VEGF receptor 2 (Flk-1) [9]: induce tyrosine phosphorylation
- induction of tyrosine phosphorylation of the S1P3 receptor [10]: induced tyrosine phosphorylation

Molecule: VEGF
- RhoA activation by agonist [1]: stimulate RhoA activation
- agonist-induced EC proliferation [2]: stimulate HPMVEC proliferation; also recorded: induced proliferation
- induction of serine/threonine phosphorylation of the mu-opioid receptor [11]: induced serine/threonine phosphorylation
- agonist-induced EC migration (% migration) [7]: induce HPMVEC migration; also recorded: induced

Molecule: PDGF
- RhoA activation by agonist [1]: activation
- agonist-induced EC proliferation [2]: induced proliferation
- induction of serine/threonine phosphorylation of the mu-opioid receptor [11]: induced serine/threonine phosphorylation
- agonist-induced EC migration (% migration) [7]: induced

Molecule: O=c1[nH]cc(F)c(=O)[nH]1 [5-FU, 5-fluorouracil]
- inhibition of VEGF induced proliferation of endothelial cells by the combination [12]: synergistically inhibit
- IC50 ([13]; Homo sapiens, SW480): ~10 µM

Molecule: C[C@H]1CN(C[C@H](Cc2ccccc2)C(=O)NCC(=O)O)CC[C@@]1(C)c1cccc(O)c1 [alvimopan]
- tumor growth and angiogenesis [14]: reduction in tumor growth and angiogenesis
- angiogenesis and tumor growth, combination of opioid, opioid antagonist and anticancer agent [14]: enhanced result
- transpassage across the membrane [15]: some transpassage
- angiogenesis and tumor growth, combination of opioid, opioid antagonist and anticancer agent [16]: enhanced result

Molecule: CCCCCCCCCCCCC/C=C/[C@@H](O)[C@@H](N)COP(=O)(O)O [S1P, sphingosine 1-phosphate]
- RhoA activation by agonist [1]: activation
- agonist-induced EC proliferation [2]: induced proliferation
- induction of serine/threonine phosphorylation of the mu-opioid receptor [11]: induced serine/threonine phosphorylation
- agonist-induced EC migration (% migration) [7]: induced

Molecule: C[C@@H](NC(=O)[C@@H](N)Cc1ccc(O)cc1)C(=O)NCC(=O)N(C)[C@@H](Cc1ccccc1)C(=O)NCCO [DAMGO, [D-Ala^2, N-McPhe^4, Gly^5-ol]-enkephalin]
- RhoA activation by agonist [1]: stimulate RhoA activation
- agonist-induced EC proliferation [2]: stimulate HPMVEC proliferation; also recorded: induced proliferation
- induction of tyrosine phosphorylation of VEGF receptor 1 (Flt-1) [4]: induce tyrosine phosphorylation
- induction of tyrosine phosphorylation of the PDGF receptor [5]: induced tyrosine phosphorylation
- agonist-induced EC migration (% migration) [7]: induce HPMVEC migration; also recorded: induced
- induction of tyrosine phosphorylation of the VEGF receptor [8]: induced tyrosine phosphorylation
- induction of tyrosine phosphorylation of VEGF receptor 2 (Flk-1) [9]: induce tyrosine phosphorylation
- induction of tyrosine phosphorylation of the S1P3 receptor [10]: induced tyrosine phosphorylation

Molecule: Bevacizumab: anti-VEGF mab (Avastin, Genentech)
- inhibition of VEGF induced migration of endothelial cells by the combination [17]: synergistically inhibit

Molecule: C[N@+]1(CC2CC2)CC[C@]23c4c5ccc(O)c4O[C@H]2C(=O)CC[C@@]3(O)[C@H]1C5 [methylnaltrexone, N-methylnaltrexone]
- tumor growth and angiogenesis [14]: reduction in tumor growth and angiogenesis
- angiogenesis and tumor growth, combination of opioid, opioid antagonist and anticancer agent [14]: enhanced result
- inhibition of VEGF induced migration of endothelial cells by the combination [17]: synergistically inhibit
- inhibition of agonist-induced RhoA activation ([1]; agonists morphine, DAMGO, VEGF (S1P, PDGF), listed as MNTX): inhibited; also recorded: attenuated
- attenuation of MS, DAMGO and VEGF stimulated HPMVEC proliferation ([2]; 100 nM MNTX, 100 nM agonist, 24 h): attenuated
- inhibition of S1P, VEGF, PDGF, morphine and DAMGO induced EC proliferation [2, 22]: inhibited
- inhibition of opioid- and growth factor-induced proliferation of endothelial cells [2, 23]: in a concentration dependent manner
- inhibition of VEGF induced proliferation of endothelial cells by the combination [12]: synergistically inhibit
- reduction of LLC proliferation [18]: significantly reduced; also recorded: dose-dependent inhibition
- tolerability [19]: well tolerated
- reduction of LLC invasion [20]: significantly reduced; also recorded: dose-dependent inhibition
- angiogenesis and tumor growth, combination of opioid, opioid antagonist and anticancer agent [16]: enhanced result
- attenuation of agonist induced mu-opioid receptor phosphorylation ([11]; MNTX pretreatment of EC): attenuated
- attenuation of VEGF induced tyrosine phosphorylation of VEGF receptor 1 [4]: attenuates
- block of MS and DAMGO induced tyrosine phosphorylation of VEGF receptor 1 (Flt-1) [4]: blocked
- attenuation of agonist induced PDGF receptor phosphorylation ([5]; MNTX pretreatment of EC): attenuated
- inhibition of MS, DAMGO and VEGF induced HPMVEC migration ([7]; 100 nM MNTX, 100 nM agonist, 18 hours): inhibited
- inhibition of S1P, VEGF, PDGF, morphine and DAMGO induced EC migration [7, 22]: inhibited
- inhibition of opioid- and growth factor-induced migration of endothelial cells [7, 23]: in a concentration dependent manner
- antiproliferation activity ([13]; MNTX alone, P<0.01 compared to control): possesses antiproliferation activity
- enhancement of 5-FU's tumoricidal effect ([13]; with 5-FU 10 μM, P<0.05 compared to 5-FU 10 μM only): enhanced 5-FU's tumoricidal effect
- attenuation of agonist induced VEGF receptor phosphorylation ([8]; MNTX pretreatment of EC): attenuated
- attenuation of VEGF induced tyrosine phosphorylation of VEGF receptor 2 [9]: attenuates
- block of MS and DAMGO induced tyrosine phosphorylation of VEGF receptor 2 (Flk-1) [9]: blocked
- appearance of macrometastases in the lungs [21]: attenuated
- appearance of micrometastases in the lungs [21]: attenuated
- appearance of macrometastases in the lungs ([21]; listed as MNTX): attenuated; also recorded: inhibition; also recorded: decrease in lung macrometastases
- appearance of micrometastases in the lungs ([21]; listed as MNTX): attenuated; also recorded: inhibition
- attenuation of tumor growth ([21]; infusion 10 mg/kg/day, wild-type mice injected with LLC cells): up to 90%
- attenuation of agonist induced S1P3 receptor phosphorylation ([10]; MNTX pretreatment of EC): attenuated
